Target: T1, Dihydrofolate reductase (Homo sapiens, UniProt P00374)
T1 sequence (P00374 whole entry): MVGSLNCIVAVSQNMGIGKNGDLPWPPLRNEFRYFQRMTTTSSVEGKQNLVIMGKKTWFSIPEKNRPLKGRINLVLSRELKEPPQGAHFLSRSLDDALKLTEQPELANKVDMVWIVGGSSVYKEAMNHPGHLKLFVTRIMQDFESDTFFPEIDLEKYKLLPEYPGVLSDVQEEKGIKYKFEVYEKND
Test: Inhibition of human DHFR

Row | IC50 | Structure (SMILES)
1 | 300 µM | Nc1nnc(CCC(=O)c2cccs2)s1 [3-(5-Amino-[1,3,4]thiadiazol-2-yl)-1-(thiophen-2-yl)propan-1-one]
2 | 312 µM | Nc1nc2ccc(OC(F)(F)F)cc2s1 [SMR000058231]
3 | 1040 µM | CS(=O)(=O)c1ccc2nc(N)sc2c1 [6-(methylsulfonyl)benzo[d]thiazol-2-amine]
